# Target: cAMP and cAMP-inhibited cGMP 3',5'-cyclic phosphodiesterase 10A (Homo sapiens, UniProt Q9Y233)
# Assay: PDE10A assay
# In short: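 Scintillation proximity readout of [3H]cGMP hydrolysis (50 nM final substrate, 15 min) by 2 ng/well human PDE10A after 15 min compound preincubation at RT, pH 7.5 with MgCl2. Four-parameter logistic fit gave IC50, reported as pIC50.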
row,IC50 [nM],SMILES
1,53,"O=C(NCc1cn(-c2ccccc2)cn1)c1nc(C2CC2)cnc1Nc1cncnc1 [Roche-Dataset for PDE10A, Compound 682]"
2,77,"Clc1ccc2nc(CCc3nc4ccc(Cl)cn4n3)nn2c1 [Roche-Dataset for PDE10A, Compound 780]"
3,0.95,"CNC(=O)c1cc(F)ccc1NC(=O)c1nc(C2CC2)cnc1Nc1cncnc1 [US8703768, 312]"
4,6.91,"O=C(Nc1conc1-c1ccccc1)c1nc(C2CC2)ccc1Nc1cncnc1 [Roche-Dataset for PDE10A, Compound 935]"
5,58,"CCOC(=O)c1cnn(C)c1C(=O)Nc1ccn2nc(N(C)C3CC3)nc2c1 [Roche-Dataset for PDE10A, Compound 486]"
6,137,"O=C(NCCc1noc(Cc2ccccc2)n1)c1nc(C2CC2)cnc1Nc1cncnc1 [Roche-Dataset for PDE10A, Compound 275]"
7,37,"O=C(Nc1ccnc(Cl)c1)c1ccc2cc(-c3ccccc3)nn2c1 [Roche-Dataset for PDE10A, Compound 310]"
8,4.99,"CCOC(=O)Cc1csc(NC(=O)c2nc(C3CC3)cnc2Nc2cncnc2)n1 [Roche-Dataset for PDE10A, Compound 914]"
9,5.89,"CC(C)Cn1ccc(NC(=O)c2nc(C3CC3)ccc2Nc2cncnc2)n1 [Roche-Dataset for PDE10A, Compound 624]"
10,6.04,"Cn1ncc(C(=O)N2CCC2)c1C(=O)N[C@@H]1CCn2cc(-c3ccccc3OC(F)F)nc2C1 [Roche-Dataset for PDE10A, Compound 257]"
11,5.53,"COC[C@H]1CCCN1c1nc(/C=C/c2nc3c(C)ncc(C)n3n2)n(C)n1 [Roche-Dataset for PDE10A, Compound 388]"
12,1.07,"Cc1cc(-n2nc(N3CCCC3)nc2CCc2nc3c(C(F)(F)F)cc(Cl)c(C)n3n2)ccn1 [Roche-Dataset for PDE10A, Compound 34]"
13,1000,"Cn1cc(-c2ccccc2)nc1CCc1ncoc1-c1ccccc1 [Roche-Dataset for PDE10A, Compound 361]"
14,0.35,"Cn1ncc(C(=O)N2CCC2)c1C(=O)Nc1ccn2nc(-c3ccccc3OCCF)nc2c1 [Roche-Dataset for PDE10A, Compound 14]"
15,748,"CNC(=O)c1cc2[nH]c(-c3ccccc3)nc2cc1NC(=O)c1oc(CO)nc1C [Roche-Dataset for PDE10A, Compound 238]"
16,271,"O=C(Nc1cccnn1)c1nc(C2CC2)cnc1Nc1cncnc1 [Roche-Dataset for PDE10A, Compound 1105]"
17,432,"COc1ccc2c(=O)n(C)c3cnc(-c4ccccc4Cl)n3c2c1 [Roche-Dataset for PDE10A, Compound 1048]"
18,270,"Cc1nc(CCNC(=O)c2nc(C3CC3)ccc2Nc2cncnc2)n[nH]1 [Roche-Dataset for PDE10A, Compound 986]"
19,2680,"Cc1cc(NC(=O)c2c(C(=O)N3CCC3)cnn2C)n[nH]1 [Roche-Dataset for PDE10A, Compound 1149]"
20,2560,"O=C(NCCN1CCOCC1=O)c1nc(C2CC2)cnc1Nc1cncnc1 [Roche-Dataset for PDE10A, Compound 728]"
21,3.74,"CCOC(=O)Cn1nc(-c2ccccn2)cc1NC(=O)c1nc(C2CC2)ccc1Nc1cncnc1 [US8470820, 15]"
22,587,"CN(C)c1nc(CCc2nccn2-c2ccccc2)nc2ccccc12 [Roche-Dataset for PDE10A, Compound 326]"

row,IC50 [nM],SMILES
1,26,"Cn1cc(-c2ccccc2)nc1COc1nc2ccccc2nc1C(F)(F)F [Roche-Dataset for PDE10A, Compound 644]"
2,10000,"CN(CCNC(=O)c1nc(C2CC2)cnc1Nc1cncnc1)C(=O)c1ccccn1 [Roche-Dataset for PDE10A, Compound 581]"
3,49,"O=C(Nc1ccnn1CCO)c1nc(C2CC2)ccc1Nc1cncnc1 [Roche-Dataset for PDE10A, Compound 860]"
4,307,"Cc1cc(C)n2nc(CCc3cncc(N4CCCC4)n3)nc2n1 [5,7-dimethyl-2-(2-(6-(pyrrolidin-1-yl)pyrazin-2-yl)ethyl)-[1,2,4]triazolo-[1,5-a]pyrimidine]"
5,4.83,"Cn1ncc(C(=O)N2CCC2)c1C(=O)Nc1cc2nc(N3CCOCC3)nn2cn1 [Roche-Dataset for PDE10A, Compound 422]"
6,197,"CNC(=O)c1cc2[nH]c(-c3ccccc3)nc2cc1NC(=O)c1cc(C)n(C)n1 [Roche-Dataset for PDE10A, Compound 391]"
7,337,"CNC(=O)c1c(-c2nc(CCc3nc4c(C)ncc(C)n4n3)n(C)n2)cnn1C [Roche-Dataset for PDE10A, Compound 290]"
8,49,"COc1cccc(NC(=O)c2nc(C3CC3)cnc2Nc2cncnc2)n1 [Roche-Dataset for PDE10A, Compound 1011]"
9,10000,"CCOC(=O)c1cnn(C)c1C(=O)N(C)c1ccn2nc(-c3ccccc3)nc2c1 [Roche-Dataset for PDE10A, Compound 825]"
10,0.85,"Cn1ncc(C(=O)N2CCC2)c1C(=O)Nc1ccn2nc(-c3cccc(OCF)c3)nc2c1 [Roche-Dataset for PDE10A, Compound 96]"
11,5.85,"CC(=O)N1CCc2ccc(NC(=O)c3nc(C4CC4)cnc3Nc3cncnc3)cc21 [Roche-Dataset for PDE10A, Compound 827]"
12,10000,"O=C(c1nc(C2CC2)cnc1Nc1cncnc1)N1CCC(N2CCOCC2)CC1 [Roche-Dataset for PDE10A, Compound 1098]"
13,1790,"O=C(NC1CCOCC1)c1nc(C2CC2)cnc1Nc1cncnc1 [Roche-Dataset for PDE10A, Compound 1059]"
14,23,"O=C(Nc1ccn(CC2CC2)n1)c1nc(C2CC2)ccc1Nc1cncnc1 [Roche-Dataset for PDE10A, Compound 593]"
15,2.26,O=C(Nc1cnc(-c2ccccn2)s1)c1nc(C2CC2)ccc1Nc1cncnc1
16,2720,"COC(=O)c1cccnc1C(=O)Nc1ccn2nc(-c3ccccc3)nc2c1 [Roche-Dataset for PDE10A, Compound 659]"
17,0.18,"COCCn1nc(-c2ccccn2)cc1NC(=O)c1nc(C2CC2)ccc1Nc1cncnc1 [US8470820, 38]"
18,10,"O=C(Nc1ccn2nc(-c3ccccc3)nc2c1)c1onc2ccc(Br)cc12 [Roche-Dataset for PDE10A, Compound 592]"
19,1.93,"O=C(Nc1cnoc1-c1ccccc1)c1nc(C2CC2)ccc1Nc1cncnc1 [Roche-Dataset for PDE10A, Compound 607]"
20,5780,"O=C(NCC1CCOCC1)c1nc(C2CC2)cnc1Nc1cncnc1 [Roche-Dataset for PDE10A, Compound 988]"
21,2440,"Cn1ncc(C(=O)N2CCC2)c1C(=O)Nc1cn(-c2cnccn2)cn1 [Roche-Dataset for PDE10A, Compound 906]"
22,5.37,"Cc1cnc(C)n2nc(/C=C/c3nc(N4CCCC4)nn3C)nc12 [Roche-Dataset for PDE10A, Compound 474]"

row,IC50 [nM],SMILES
1,29,"COC(=O)c1cccc(NC(=O)c2nc(C3CC3)cnc2Nc2cncnc2)n1 [Roche-Dataset for PDE10A, Compound 1037]"
2,5910,"O=C1c2ccccc2C(=O)N1CCc1csc(-c2cccnc2)n1 [Roche-Dataset for PDE10A, Compound 292]"
3,271,"Cn1cc(-c2ccccc2)nc1/C=C/c1ccc2ccccc2n1 [Roche-Dataset for PDE10A, Compound 180]"
4,2450,"CC(C)C[C@H](CO)NC(=O)c1nc(C2CC2)cnc1Nc1cncnc1 [Roche-Dataset for PDE10A, Compound 939]"
5,15,"Cc1nc(-c2ccccc2Cl)n2c3ccc(Cl)cc3c(=O)n(C)c12 [Roche-Dataset for PDE10A, Compound 967]"
6,371,"O=C1c2ccccc2CN1c1ccc2nc(-c3ccccc3)[nH]c2c1 [Roche-Dataset for PDE10A, Compound 307]"
7,117,"COCCn1ccc(NC(=O)c2nc(Cl)ccc2Nc2cncnc2)n1 [Roche-Dataset for PDE10A, Compound 864]"
8,13,"COCCN(C)C(=O)c1cnn(C)c1C(=O)Nc1ccn2cc(-c3cccc(OCCF)c3)nc2n1 [Roche-Dataset for PDE10A, Compound 45]"
9,1.15,"CNC(=O)c1cc(C(C)C)ccc1NC(=O)c1nc(C2CC2)cnc1Nc1cncnc1 [US8703768, 208]"
10,69,"O=C(Nc1cnn(Cc2ccccc2)c1)c1nc(C2CC2)ccc1Nc1cncnc1 [Roche-Dataset for PDE10A, Compound 614]"
11,859,"CC(C)n1ncc2cc(CCc3nc(-c4ccccc4)cn3C)ncc21 [Roche-Dataset for PDE10A, Compound 48]"
12,863,"O=C(NC1(c2ccc(Cl)cc2)CCC1)c1nc(C2CC2)cnc1Nc1cncnc1 [Roche-Dataset for PDE10A, Compound 1074]"
13,0.49,"CC(C)(O)CNC(=O)c1cc(OCCO)ccc1NC(=O)c1nc(C2CC2)cnc1Nc1cncnc1 [US8703768, 215]"
14,8.56,"O=C(Nc1ccnc(N2CCOCC2)c1)c1nc(C2CC2)cnc1Nc1cncnc1 [Roche-Dataset for PDE10A, Compound 815]"
15,4.54,"Cn1ncc(C(=O)N2CCC2)c1C(=O)N[C@@H]1CCn2cc(-c3ccc(F)cc3)nc2C1 [Roche-Dataset for PDE10A, Compound 261]"
16,20,"Cc1cnc(C)n2nc(/C=C/c3nc(N4CCCC4)n(C)n3)nc12 [Roche-Dataset for PDE10A, Compound 443]"
17,1430,"O=C(N[C@@H](CO)Cc1ccccc1)c1nc(C2CC2)cnc1Nc1cncnc1 [Roche-Dataset for PDE10A, Compound 641]"
18,130,"Cn1ncc(C(=O)N2CCC2)c1C(=O)Nc1ccnn1-c1ccccn1 [Roche-Dataset for PDE10A, Compound 1024]"
19,404,"CCCn1ccc(NC(=O)c2c(C(=O)N3CCC3)cnn2C)n1 [Roche-Dataset for PDE10A, Compound 1116]"
20,72,"Cc1c(Cl)cc(Cl)c2nc(CCc3nncn3-c3ccccc3)nn12 [Roche-Dataset for PDE10A, Compound 582]"
21,53,"CNC(=O)Cc1ccccc1NC(=O)c1nc(C2CC2)ccc1Nc1cncnc1 [Roche-Dataset for PDE10A, Compound 809]"

# Reference: BindingDB's records for doi:10.1007/s10822-022-00478-x (Roche Innovation Center Basel, F. Hoffmann-La Roche Ltd., 2022)
